Assay results as given in patent US20090036448A1, “PYRIMIDINE DERIVATIVES AND METHODS OF TREATMENT RELATED TO THE USE THEREOF” (TAISHO PHARMECUTICAL CO., LTD., priority 2004, published 2009).
Structures can show the parent of a compound that is named as a salt.

Target: MCH receptor (Homo sapiens, UniProt Q99705)
Experiment: FLIPR/FDSS6000 functional assay: intracellular Ca2+ changes evoked by MCH
Format: cell-based
Conditions: class by percent of control at 10^−7 M or by IC50; antagonist activity, 50 nM of MCH; read-out: class
Excerpt: Subsequently, a functional based assay was used to confirm the lead hits, referred to as FLIPR™ (the Fluorometric Imaging Plate Reader) and FDSS6000™ (Functional Drug Screening System). This assay utilized a non-endogenous, constitutively active version of the MCH receptor.
The FLIPR and FDSS assays are able to detect intracellular Ca^2+ concentration in cells, which can be utilized to assess receptor activation and determine whether a candidate compound is an, for example, antagonist, inverse agonist or agonist to a Gq-coupled receptor. The concentration of free Ca^2+ in the cytosol of any cell is extremely low, whereas its concentration in the extracellular fluid and endoplasmic reticulum (ER) is very high. Thus, there is a large gradient tending to drive Ca^2+ into the cytosol across both the plasma membrane and ER. The FLIPR™ and FDSS6000™ systems (Molecular Devices Corporation, HAMAMATSU Photonics K.K.) are designed to perform functional cell-based assays, such as the measurement of intracellular calcium for high-throughput screening. The measurement of fluorescent is associated with calcium release upon activation of the Gq-coupled receptors.
Fluorometric Imaging Plate Reader system was used to allow for rapid, kinetic measurements of intracellular fluorescence in 96 well microplates (or 384 well microplates). Simultaneous measurements of fluorescence in all wells can be made by FLIPR or FDSS6000™ every second with high sensitivity and precision. These systems are ideal for measuring cell-based functional assays such as monitoring the intracellular calcium fluxes that occur within seconds after activation of the Gq coupled receptor.
Briefly, the cells are seeded into 96 well at 5.5×10^4 cells/well with complete culture media (Dulbecco's Modified Eagle Medium with 10% fetal bovine serum, 2 mM L-glutamine, 1 mM sodium pyruvate and 0.5 mg/mL G418, pH 7.4) for the assay next day. On the day of assay, the media is removed and the cells are incubated with 100 μl of loading buffer (4 μM Fluo-4-AM in complete culture media containing 2.5 mM Probenicid, 0.5 mg/ml and 0.2% bovine serum albumin) in 5% CO2 incubator at 37° C. for 1 hr. The loading buffer is removed, and the cells are washed with wash buffer (Hank's Balanced Salt Solution containing 2.5 mM Probenicid, 20 mM HEPES, 0.5 mg/mL and 0.2% bovine serum albumin, pH 7.4). One hundred fifty μl of wash buffer containing various concentrations of test compound is added to the cells, and the cells are incubated in 5% CO2 incubator at 37° C. for 30 min. Fifty μl of wash buffer containing various concentration of MCH are added to each well, and transient changes in [Ca^2+]i evoked by MCH are monitored using the FLIPR or FDSS in 96 well plates at Ex. 488 nm and Em. 530 nm for 290 second. When antagonist activity of compound is tested, 50 nM of MCH is used.
Use of FLIPR™ and FDSS6000™ can be accomplished by following manufacturer's instruction (Molecular Device Corporation and HAMAMATSU Photonics K.K.).

SMILES	IC50 [nM]
Cc1nc(Cl)cc(N[C@H]2CC[C@@H](NC(=O)c3cc(F)c(F)c(F)c3)CC2)n1 [Example 172, N-{cis-4-[(6-Chloro-2-methylpyrimidin-4-yl)amino]cyclohexyl}-3,4,5-trifluorobenzamide]	> 200
Cc1nc(N[C@H]2CC[C@@H](NC(=O)c3ccc(C(F)(F)F)cc3)CC2)cc(N(C)C)n1 [Example 19, N-(cis-4-{[6-(Dimethylamino)-2-methylpyrimidin-4-yl]amino}cyclohexyl)-4-(trifluoromethyl)benzamide hydrochloride]	> 200
Cn1cnc2c(N[C@H]3CC[C@@H](NC(=O)c4ccc(F)c(Cl)c4)CC3)ncnc21 [Example 190, 3-Chloro-4-fluoro-N-{cis-4-[(9-methyl-9H-purin-6-yl)amino]cyclohexyl}benzamide hydrochloride]	> 200
Cc1nc(N[C@H]2CC[C@@H](NC(=O)c3ccccc3F)CC2)cc(N(C)C)n1 [Example 22, N-(cis-4-{[6-(Dimethylamino)-2-methylpyrimidin-4-yl]amino}cyclohexyl)-2-fluorobenzamide hydrochloride]	> 200
COc1cc(N[C@H]2CC[C@@H](NC(=O)c3ccc(F)c(Cl)c3)CC2)nc(OC)n1 [Example 185, 3-Chloro-N-{cis-4-[(2,6-dimethoxypyrimidin-4-yl)amino]cyclohexyl}-4-fluorobenzamide hydrochloride]	> 200
Cc1nc(NC[C@H]2CC[C@@H](NC(=O)c3ccc(F)c(F)c3)CC2)cc(N(C)C)n1 [Example 28, N-[cis-4-({[6-(Dimethylamino)-2-methylpyrimidin-4-yl]amino}methyl)cyclohexyl]-3,4-difluorobenzamide hydrochloride]	> 200
CN(C)c1cc(N[C@H]2CC[C@@H](NCc3ccc(Br)cc3OC(F)(F)F)CC2)ncn1 [Example 1, N′-(cis-4-{[4-Bromo-2-(trifluoromethoxy)benzyl]amino}cyclohexyl)-N,N-dimethylpyrimidine-4,6-diamine dihydrochloride]	> 200
Cc1nc(N[C@H]2CC[C@@H](NC(=O)c3ccc(F)c(Cl)c3)CC2)cc(N2CCOCC2)n1 [Example 39, 3-Chloro-4-fluoro-N-{cis-4-[(2-methyl-6-morpholin-4-ylpyrimidin-4-yl)amino]cyclohexyl}-benzamide hydrochloride]	50 to 200
Cc1cc(N[C@H]2CC[C@@H](NC(=O)c3ccc(F)c(Cl)c3)CC2)nc(C)n1 [Example 171, 3-Chloro-N-{cis-4-[(2,6-dimethylpyrimidin-4-yl)amino]cyclohexyl}-4-fluorobenzamide hydrochloride]	> 200

Next, values leading:

IC50 [nM]	SMILES
50 to 200	Cc1nc(N[C@H]2CC[C@@H](NC(=O)c3ccc(OC(F)(F)F)c(Cl)c3)CC2)cc(N(C)C)n1 [Example 16, 3-Chloro-N-(cis-4-{[6-(dimethylamino)-2-methylpyrimidin-4-yl]amino}cyclohexyl)-4-(trifluoromethoxy)benzamide hydrochloride]
< 50	Cc1nc(N[C@H]2CC[C@@H](NC(=O)c3ccc(F)c(C(F)(F)F)c3)CC2)cc(N(C)C)n1 [Example 14, N-(cis-4-{[6-(Dimethylamino)-2-methylpyrimidin-4-yl]amino}cyclohexyl)-4-fluoro-3-(trifluoromethyl)benzamide hydrochloride]
50 to 200	Cc1nc(N[C@H]2CC[C@@H](NC(=O)c3ccc(Cl)c(F)c3)CC2)cc(N(C)C)n1 [Example 9, 4-Chloro-N-(cis-4-{[6-(dimethylamino)-2-methylpyrimidin-4-yl]amino}cyclohexyl)-3-fluorobenzamide hydrochloride]
< 50	CCc1nc(N[C@H]2CC[C@@H](NC(=O)c3ccc(F)c(F)c3)CC2)cc(N(C)C)n1 [Example 32, N-(cis-4-{[6-(Dimethylamino)-2-ethylpyrimidin-4-yl]amino}cyclohexyl)-3,4-difluorobenzamide hydrochloride]
